# Data reported in patent publication US11828759B2, “Method of diagnosis” (Peter MacCallum Cancer Institute, priority 2016, dated 2023).
# Entries after “also recorded” stand apart in the source; their conditions may differ.
# Columns and labels:
# E-cadherin = test: Western blot of E-cadherin in N1ME cells and supernatant after CA-074 treatment; type: cell-based, human; conditions: N1ME stefin A wild type or stefin A low cells; CA-074 for 72 hours
# Protocol: (§1) Cells were lysed by freezing in citrate buffer (50 mM citrate, pH 5.5, 0.5% CHAPS, 0.1% TRITON™ X-100, 4 mM DTT). For cathepsin B activity gels, activity-based probes [GB123 (1 μM) (29) or BMV109 (0.1 μM) (Verdoes et al. 2013)] were added to lysates from a 100×stock, and proteins were incubated for 30 minutes at 37° C. The addition of 4×sample buffer (40% glycerol, 200 mM Tris-HCl pH 6.8, 0.04% bromophenol blue, 5% beta-mercaptoethanol) stopped the reaction with boiling for 10 minutes. Proteins (30-50 μg) were separated by SDS-PAGE (on either 15% acrylamide or gradient 4-20% gels, precast from BIO-RAD, CA, USA) and visualized using a TYPHOON flatbed laser scanner (GE Healthcare, UK) for Cy5 fluorescence. For immunoblotting, proteins were transferred to nitrocellulose membranes and subjected to standard Western blotting protocols. Membranes were incubated with 1 μg/ml primary antibodies against stefin A, cathepsin B (R&D Systems, Minneapolis, USA, AF965), DSG3 (Life Technologies, 326300), E-cadherin (Novus, NB-110-56937), or 1:10,000 dilutions of β-actin (Sigma-Aldrich, MO, USA, A22280) or GAPDH (Cell Signaling Technology, MA, USA, 8884). Signal was detected using ECL (GE Healthcare), G:Box GelDoc (Syngene, CBG, UK) and GeneSys (Syngene) software with automatic exposure.
# (§2) To collect secreted proteins, cells were incubated in serum free media for 24 hours. […]
# DSG3 = test: Western blot of DSG3 in N1ME cells and conditioned media after CA-074 treatment; type: cell-based, human; conditions: CA-074 for 72 hours vs DMSO
# Protocol: as §1, §2
# [1] = test system: MMTV-PyMT mice (spontaneous mammary gland tumors); test: MMTV-PyMT mouse model of DCIS-to-invasive transition; type: in vivo; conditions: 50 mg/kg intraperitoneal daily, day 30-49
# Protocol: Mouse investigations were performed after approval by the La Trobe University Animal Ethics Committee. Bl/6 MMTV-PyMT positive female mice were injected (intraperitoneal, 200 μl/20 g mouse) daily with 50 mg/kg CA-074 or vehicle (5% DMSO/saline) from day 30-49. On day 50, mice were culled and second, third and fourth mammary glands were resected and sent for histology. Mouse tissues were fixed in 10% buffered formalin for 6 hours and paraffin-embedded. Sections at three different depths throughout the mammary gland were taken and were stained with hematoxylin and eosin according to standard protocols. Alternatively, sections were stained with 1 μg/ml anti-α-smooth muscle actin (ABCAM, ab66133) or with isotype control antibodies, as above. Sections were scored by a pathologist blinded to treatment groups (Sandra O'Toole) for the presence of invasive regions of cancer growth within the mammary gland. Experiment included 8 mice per group.
# MDA-MB-231 cells = test: 3D culture / co-culture invasion model on reconstituted basement membrane; type: cell-based, human; conditions: for invasive protrusions / invasive outgrowths of co-cultures: MDA-MB-231 co-cultured 1:1 with N1ME stefin A low myoepithelial cells, 50 μM inhibitor in media, refreshed every 48 hours, vs DMSO control, n=3
# Protocol: All 3D cultures were performed using CULTREX® (Trevigen, Gaithersburg, MD, 3433-005-01) similar to previously described (Mullins et al.). Briefly, 8 well chambers (THERMOFISHER, NUN155409) were coated with 100% CULTREX and allowed to solidify at 37° C. Cells (pre-mixed at 1:1 ratio) were seeded on top of the solidified CULTREX and allowed to adhere for 60-90 minutes before 2% CULTREX in MEGM media (LONZA) was overlaid. Media was changed every 4 days unless otherwise stated. On day 7, Z-stacks were captured on a ZEISS LSM 780 inverted confocal microscope, and 3D-reconstructions were created using IMARIS.
# Bright-field images at 40× magnification were taken on the Olympus BX41 using a DP25 camera and DP2-BSW software (Olympus, TYO, Japan) to observe overall multicellular morphology. Nuclei were labelled with cell permeable Hoechst (Thermo Scientific, MA, USA, 33342) and rinsed with PBS. Confocal microscopy was performed on a Zeiss LSM 780 inverted confocal microscope (Zeiss, Thornwood, NY, USA) with a 10×/0.45 air-objective, with 37° C., 5% CO2 incubation. Z-stacks were captured using ZEN software (Zeiss) and 3D-reconstructions were created using IMARIS (Bitplane, Switzerland) including volume rendering.
# Images of 3D cultures were processed and analyzed using the Fiji distribution of IMAGEJ (Schindelin et al. 2012) as follows. Extraction and mask generation of the individual cultures was carried out by applying an edge filter followed by an unsharp mask (radius=6, mask=0.8). The resulting image was blurred using a Gaussian filter (sigma=4) to make subsequent thresholding more accurate. A threshold was applied, manually adjusted if required and used to create a binary mask. The resulting mask was filtered by size to remove small, erroneous, debris. Each individual 3D cultures mask was then measured for its perimeter and convex hull lengths. […]
# All statistics were calculated and graphed using PRISM version 7. […] Variation in mean convex hull to perimeter ratio was determined using one-way ANOVA followed by Tukey's post hoc analysis.
# cathepsin L = molecular target: T1, cathepsin L (Homo sapiens, UniProt P07711); test: Stefin A in vitro inhibition of cathepsin L in N1ME cell lysate (BMV109 activity based probe); type: biochemical; conditions: increasing concentrations of recombinant stefin A, 15 min at 37 C
# T1 construct: SDS-PAGE gel electrophoresis of N1ME cell lysate incubated with increasing concentrations of recombinant stefin A; endogenous in cells; host or cells: N1ME (hTERT-immortalized human myoepithelial cells), lysed in citrate buffer pH 5.5
# cathepsin B = molecular target: T2, cathepsin B (Homo sapiens, UniProt P07858); test: Stefin A in vitro inhibition of cathepsin B in N1ME cell lysate (BMV109 activity based probe); type: biochemical; conditions: increasing concentrations of recombinant stefin A, 15 min at 37 C
# T2 construct: SDS-PAGE gel electrophoresis of N1ME cell lysate incubated with increasing concentrations of recombinant stefin A; endogenous in cells; host or cells: N1ME (hTERT-immortalized human myoepithelial cells), lysed in citrate buffer pH 5.5
# Protocol: as §1, with “exposure. […]” for “exposure.”
# T1 sequence (P07711 114-333): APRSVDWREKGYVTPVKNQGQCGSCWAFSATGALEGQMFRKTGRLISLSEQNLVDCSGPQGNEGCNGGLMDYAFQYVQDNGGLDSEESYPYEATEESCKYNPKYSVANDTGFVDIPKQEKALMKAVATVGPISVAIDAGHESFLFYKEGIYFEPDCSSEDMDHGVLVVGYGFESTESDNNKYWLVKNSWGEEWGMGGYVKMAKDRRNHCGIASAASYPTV
Molecule,E-cadherin expression in whole cell lysates or ecto-protein (E-cadherin),DSG3 protein in whole cell lysates (DSG3; N1ME stefin A low cells),cleaved extracellular domain of DSG3 (ecto-DSG3) in conditioned media (DSG3; N1ME wild type and stefin A low cells),"mice progressed to IDC at experimental endpoint ([1]; glands scored at day 50, 8 mice per group, control 6/8)",number of invasive regions throughout the mammary gland ([1]; vs DMSO control),invasive protrusions / invasive outgrowths of co-cultures (MDA-MB-231 cells),cathepsin L activity (cathepsin L),cathepsin B activity (cathepsin B),"invasion of MDA-MB-231 cells cultured alone (MDA-MB-231 cells; MDA-MB-231 alone, without myoepithelial cells)"
CCCNC(=O)[C@H]1O[C@@H]1C(=O)N[C@H](C(=O)N1CCC[C@H]1C(=O)O)[C@@H](C)CC [CA-074],did not affect E-cadherin expression,rescued in whole cell lysates; also recorded: an increase in protein was noted for DSG3,decreased the cleaved extracellular domain of DSG3,2/8,decreased the number of invasive regions,rescued the phenotype caused by stefin A loss,,,
JPM-OEt,,,,,,"reverted the invasive protrusions in the co-cultures, however not to the same extent as CA-074, and was not statistically significant",,,
"recombinant stefin A: recombinant stefin A (R&D Systems, 1407-PI-050), an 11 kDa cysteine protease inhibitor (protein, UniProt P01040 1-98, looked up) Cystatin-A: MIPGGLSEAKPATPEIQEIVDKVKPQLEEKTNETYGKLEAVQYKTQVVAGTNYYIKVRAGDNKYMHLKVFKSLPGQNEDLVLTGYQVDKNKDDELTGF",,,,,,,can be inhibited,can be inhibited,did not inhibit invasion
